Counter-ions that a name gives are not always drawn.
melting point | Compound
198 to 200 °C | CCOc1cc([C@@H](CS(C)(=O)=O)N2Cc3c(Cl)ccc(NC(=O)CN4CCOCC4)c3C2=O)ccc1OC.Cl
198 to 200 °C | CCOc1cc([C@@H](CS(C)(=O)=O)N2Cc3c(Cl)ccc(NC(=O)CN(C)C)c3C2=O)ccc1OC.Cl
119 to 121 °C | CCOc1cc([C@@H](CCN(C)C)N2Cc3cccc(NC(=O)C4CC4)c3C2=O)ccc1OC.Cl
169 to 171 °C | CCOc1cc([C@@H](CCN)N2Cc3cccc(NC(=O)C4CC4)c3C2=O)ccc1OC (as salt: salt) [Example 5, (1R)-Cyclopropanecarboxylic acid {2-[3-amino-1-(3-ethoxy-4-methoxy-phenyl)-propyl]-3-oxo-2,3-dihydro-1H-isoindol-4-yl}-amide]
103 to 105 °C | CCOc1cc([C@@H](CCO)N2Cc3cccc(NC(=O)C4CC4)c3C2=O)ccc1OC [Example 1, (1R)-Cyclopropanecarboxylic acid {2-[1-(3-ethoxy-4-methoxy-phenyl)-3-hydroxy-propyl]-3-oxo-2,3-dihydro-1H-isoindol-4-yl}-amide]
136 to 138 °C | CCOc1cc([C@@H](CCNO)N2Cc3cccc(NC(=O)C4CC4)c3C2=O)ccc1OC [Example 3, (1R)-Cyclopropanecarboxylic acid {2-[1-(3-ethoxy-4-methoxy-phenyl)-3-hydroxyamino-propyl]-3-oxo-2,3-dihydro-1H-isoindol-4-yl}-amide]
93 to 95 °C | CCOc1cc([C@@H](CCNS(C)(=O)=O)N2Cc3cccc(NC(=O)C4CC4)c3C2=O)ccc1OC [Example 4, (1R)-Cyclopropanecarboxylic acid {2-[1-(3-ethoxy-4-methoxy-phenyl)-3-methanesulfonylamino-propyl]-3-oxo-2,3-dihydro-1H-isoindol-4-yl}-amide]
162 to 164 °C | CCOc1cc([C@@H](CCNC(N)=O)N2Cc3cccc(NC(=O)C4CC4)c3C2=O)ccc1OC [Example 6, (1R)-Cyclopropanecarboxylic acid {2-[1-(3-ethoxy-4-methoxy-phenyl)-3-ureido-propyl]-3-oxo-2,3-dihydro-1H-isoindol-4-yl}-amide]
148 to 150 °C | CCOc1cc([C@@H](CCS(C)(=O)=O)N2Cc3cccc(NC(=O)C4CC4)c3C2=O)ccc1OC [Example 8, (1R)-Cyclopropanecarboxylic acid {2-[1-(3-ethoxy-4-methoxy-phenyl)-3-methanesulfonyl-propyl]-3-oxo-2,3-dihydro-1H-isoindol-4-yl}-amide]
160 to 162 °C | CCOc1cc([C@@H](CC(=O)NO)N2Cc3cccc(NC(=O)C4CC4)c3C2=O)ccc1OC [Example 9, (1R)-Cyclopropanecarboxylic acid {2-[1-(3-ethoxy-4-methoxy-phenyl)-2-hydroxycarbamoyl-ethyl]-3-oxo-2,3-dihydro-1H-isoindol-4-yl}-amide]
122 to 125 °C | CCOc1cc([C@@H](CC[S+](C)[O-])N2Cc3cccc(NC(=O)C4CC4)c3C2=O)ccc1OC (stereo partly drawn) [Example 11, (3R)-Cyclopropanecarboxylic acid {2-[1-(3-ethoxy-4-methoxy-phenyl)-3-methanesulfinyl-propyl]-3-oxo-2,3-dihydro-1H-isoindol-4-yl}-amide]
118 to 120 °C | CCOc1cc([C@@H](CC(=O)O)N2Cc3c(Cl)ccc(NC(=O)C4CC4)c3C2=O)ccc1OC [Example 12, (3R)-3-[4-Chloro-7-(cyclopropanecarbonyl-amino)-1-oxo-1,3-dihydro-isoindol-2-yl]-3-(3-ethoxy-4-methoxy-phenyl)-propionic acid]
158 to 160 °C | CCOc1cc([C@@H](CC(=O)OC)N2Cc3c(Cl)ccc(NC(=O)C4CC4)c3C2=O)ccc1OC [Example 13, (3R)-3-[4-Chloro-7-(cyclopropanecarbonyl-amino)-1-oxo-1,3-dihydro-isoindol-2-yl]-3-(3-ethoxy-4-methoxy-phenyl)-propionic acid methyl ester]
201 to 203 °C | CCOc1cc([C@@H](CC(N)=O)N2Cc3c(Cl)ccc(NC(=O)C4CC4)c3C2=O)ccc1OC [Example 14, (1R)-Cyclopropanecarboxylic acid {2-[2-carbamoyl-1-(3-ethoxy-4-methoxy-phenyl)-ethyl]-7-chloro-3-oxo-2,3-dihydro-1H-isoindol-4-yl}-amide]
163 to 165 °C | CCOc1cc([C@@H](CC(=O)N(C)C)N2Cc3c(Cl)ccc(NC(=O)C4CC4)c3C2=O)ccc1OC [Example 15, (1R)-Cyclopropanecarboxylic acid {7-chloro-2-[2-dimethylcarbamoyl-1-(3-ethoxy-4-methoxy-phenyl)-ethyl]-3-oxo-2,3-dihydro-1H-isoindol-4-yl}-amide]
197 to 199 °C | CCOc1cc([C@@H](CS(C)(=O)=O)N2Cc3c(Cl)ccc(NC(=O)C4CC4)c3C2=O)ccc1OC [Example 18, (1S)-Cyclopropanecarboxylic acid {7-chloro-2-[1-(3-ethoxy-4-methoxy-phenyl)-2-methanesulfonyl-ethyl]-3-oxo-2,3-dihydro-1H-isoindol-4-yl}-amide]
219 to 221 °C | CCOc1cc([C@@H](CS(C)(=O)=O)N2Cc3c(Br)ccc(NC(=O)C4CC4)c3C2=O)ccc1OC [Example 19, (1S)-Cyclopropanecarboxylic acid {7-bromo-2-[1-(3-ethoxy-4-methoxy-phenyl)-2-methanesulfonyl-ethyl]-3-oxo-2,3-dihydro-1H-isoindol-4-yl}-amide]
107 to 109 °C | CCOc1cc(C(CC)N2Cc3cccc(NC(=O)C4CC4)c3C2=O)ccc1OC (stereo not drawn) [Example 20, Cyclopropanecarboxylic acid {2-[1-(3-ethoxy-4-methoxy-phenyl)-propyl]-3-oxo-2,3-dihydro-1H-isoindol-4-yl}-amide]
200 to 202 °C | CCOc1cc(C(CC#N)N2Cc3c(Cl)ccc(NC(=O)C4CC4)c3C2=O)ccc1OC (stereo not drawn) [Example 21, Cyclopropanecarboxylic acid {7-chloro-2-[2-cyano-1-(3-ethoxy-4-methoxy-phenyl)-ethyl]-3-oxo-2,3-dihydro-1H-isoindol-4-yl}-amide]
159 to 161 °C | CCOc1cc(C(Cc2c(Cl)cncc2Cl)N2Cc3cccc(NC(=O)C4CC4)c3C2=O)ccc1OC (stereo not drawn) [Example 22, Cyclopropanecarboxylic acid {2-[2-(3,5-dichloro-pyridin-4-yl)-1-(3-ethoxy-4-methoxy-phenyl)-ethyl]-3-oxo-2,3-dihydro-1H-isoindol-4-yl}-amide]
90 to 92 °C | CCOc1cc([C@@H](CC(C)(C)O)N2Cc3cccc(NC(=O)C4CC4)c3C2=O)ccc1OC [Example 23, (1R)-Cyclopropanecarboxylic acid {2-[1-(3-ethoxy-4-methoxy-phenyl)-3-hydroxy-3-methyl-butyl]-3-oxo-2,3-dihydro-1H-isoindol-4-yl}-amide]
130 to 132 °C | CCOc1cc([C@@H](CC(=O)NOC(=O)C2CC2)N2Cc3cccc(NC(=O)C4CC4)c3C2=O)ccc1OC [Example 24, (1R)-Cyclopropanecarboxylic acid {2-[2-cyclopropanecarbonyloxycarbamoyl-1-(3-ethoxy-4-methoxy-phenyl)-ethyl]-3-oxo-2,3-dihydro-1H-isoindol-4-yl}-amide]
107 to 109 °C | CCOc1cc([C@@H](CC(=O)NOC(=O)C(C)C)N2Cc3cccc(NC(=O)C4CC4)c3C2=O)ccc1OC [Example 25, (1R)-Cyclopropanecarboxylic acid {2-[1-(3-ethoxy-4-methoxy-phenyl)-2-isobutyryloxycarbamoyl-ethyl]-3-oxo-2,3-dihydro-1H-isoindol-4-yl}-amide]
146 to 148 °C | CCOc1cc([C@@H](CC(=O)NOC(=O)C(C)(C)C)N2Cc3cccc(NC(=O)C4CC4)c3C2=O)ccc1OC [Example 26, (1R)-Cyclopropanecarboxylic acid {2-[2-(2,2-dimethyl-propionyloxycarbamoyl)-1-(3-ethoxy-4-methoxy-phenyl)-ethyl]-3-oxo-2,3-dihydro-1H-isoindol-4-yl}-amide]
118 to 120 °C | CCOc1cc([C@@H](CC(=O)NOC(=O)CC(C)(C)C)N2Cc3cccc(NC(=O)C4CC4)c3C2=O)ccc1OC [Example 27, (1R)-Cyclopropanecarboxylic acid {2-[2-(3,3-dimethyl-butyryloxycarbamoyl)-1-(3-ethoxy-4-methoxy-phenyl)-ethyl]-3-oxo-2,3-dihydro-1H-isoindol-4-yl}-amide]
176 to 178 °C | CCOc1cc([C@@H](CS(C)(=O)=O)N2Cc3c(F)ccc(NC(=O)C4CC4)c3C2=O)ccc1OC [Example 28, (1S)-Cyclopropanecarboxylic acid {2-[1-(3-ethoxy-4-methoxy-phenyl)-2-methanesulfonyl-ethyl]-7-fluoro-3-oxo-2,3-dihydro-1H-isoindol-4-yl}-amide]
205 to 207 °C | CCOc1cc([C@@H](CS(C)(=O)=O)N2Cc3c(Cl)ccc(NC(=O)N(C)C)c3C2=O)ccc1OC [Example 29, (1S)-3-{7-Chloro-2-[1-(3-ethoxy-4-methoxy-phenyl)-2-methanesulfonyl-ethyl]-3-oxo-2,3-dihydro-1H-isoindol-4-yl}-1,1-dimethyl-urea]

Compound | melting point
CCOc1cc(C(CCN(OC(=O)OC(C)(C)C)C(=O)OC(C)(C)C)N2Cc3cccc(NC(=O)C4CC4)c3C2=O)ccc1OC [Example 2, (3R)-(tert-Butoxy)-N-{3-[7-(cyclopropylcarbonylamino)-1-oxoisoindolin-2-yl]-3-(3-ethoxy-4-methoxyphenyl)propyl}carbonylamino(tert-butoxy)formate] | 153 to 155 °C
CCOc1cc([C@@H](CC(=O)NOC(C)=O)N2Cc3cccc(NC(=O)C4CC4)c3C2=O)ccc1OC [Example 10, (1R)-Cyclopropanecarboxylic acid {2-[2-acetoxycarbamoyl-1-(3-ethoxy-4-methoxy-phenyl)-ethyl]-3-oxo-2,3-dihydro-1H-isoindol-4-yl}-amide] | 140 to 142 °C
CCOc1cc([C@@H](CC(=O)NOC(C)=O)N2Cc3c(Cl)ccc(NC(=O)C4CC4)c3C2=O)ccc1OC [Example 17, (1R)-Cyclopropanecarboxylic acid {2-[2-acetoxycarbamoyl-1-(3-ethoxy-4-methoxy-phenyl)-ethyl]-7-chloro-3-oxo-2,3-dihydro-1H-isoindol-4-yl}-amide] | 139 to 141 °C

— patent publication US7799819B2, “7-Amido-isoindolyl compounds and their pharmaceutical uses” (Celgene Corporation, priority 2003, dated 2010)
